Data: PubChem BioAssay (NCI)
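Grown in 96-well plates, cells were treated for 48 hours with each compound at five concentrations. Insufficient inhibition: endpoint recorded as highest concentration tested. TGI marks complete inhibition of growth.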

Experiments:
Experiment in all cases: NCI-60 cell line screen, 48 h
786-0 renal = test system: 786-0 renal
A498 renal = test system: A498 renal
A549 NSCLC = test system: A549 NSCLC
ACHN renal = test system: ACHN renal
CAKI-1 renal = test system: CAKI-1 renal
CCRF-CEM leukemia = test system: CCRF-CEM leukemia
COLO 205 colon = test system: COLO 205 colon
DLD-1 colon = test system: DLD-1 colon
DMS 114 small cell lung = test system: DMS 114 small cell lung
EKVX NSCLC = test system: EKVX NSCLC
HCC-2998 colon = test system: HCC-2998 colon
HCT-116 colon = test system: HCT-116 colon
HCT-15 colon = test system: HCT-15 colon
HL-60(TB) leukemia = test system: HL-60(TB) leukemia
HOP-18 NSCLC = test system: HOP-18 NSCLC
HOP-62 NSCLC = test system: HOP-62 NSCLC
HOP-92 NSCLC = test system: HOP-92 NSCLC
HT29 colon = test system: HT29 colon
IGROV1 ovarian = test system: IGROV1 ovarian
K-562 leukemia = test system: K-562 leukemia
KM12 colon = test system: KM12 colon
KM20L2 colon = test system: KM20L2 colon
LOX IMVI melanoma = test system: LOX IMVI melanoma
LXFL 529 NSCLC = test system: LXFL 529 NSCLC
M14 melanoma = test system: M14 melanoma
M19-MEL melanoma = test system: M19-MEL melanoma
MALME-3M melanoma = test system: MALME-3M melanoma
MOLT-4 leukemia = test system: MOLT-4 leukemia
NCI-H226 lung = test system: NCI-H226 lung
NCI-H23 lung = test system: NCI-H23 lung
NCI-H460 lung = test system: NCI-H460 lung
NCI-H522 lung = test system: NCI-H522 lung
OVCAR-3 ovarian = test system: OVCAR-3 ovarian
OVCAR-4 ovarian = test system: OVCAR-4 ovarian
OVCAR-5 ovarian = test system: OVCAR-5 ovarian
OVCAR-8 ovarian = test system: OVCAR-8 ovarian
RPMI-8226 leukemia = test system: RPMI-8226 leukemia
RXF-631 renal = test system: RXF-631 renal
SF-268 CNS = test system: SF-268 CNS
SF-295 CNS = test system: SF-295 CNS
SF-539 CNS = test system: SF-539 CNS
SK-MEL-2 melanoma = test system: SK-MEL-2 melanoma
SK-MEL-28 melanoma = test system: SK-MEL-28 melanoma
SK-MEL-5 melanoma = test system: SK-MEL-5 melanoma
SK-OV-3 ovarian = test system: SK-OV-3 ovarian
SN12C renal = test system: SN12C renal
SNB-19 CNS = test system: SNB-19 CNS
SNB-75 CNS = test system: SNB-75 CNS
SNB-78 CNS = test system: SNB-78 CNS
SR leukemia = test system: SR leukemia
SW-620 colon = test system: SW-620 colon
TK-10 renal = test system: TK-10 renal
U251 CNS = test system: U251 CNS
UACC-257 melanoma = test system: UACC-257 melanoma
UACC-62 melanoma = test system: UACC-62 melanoma
UO-31 renal = test system: UO-31 renal
XF 498 CNS = test system: XF 498 CNS
DMS 273 small cell lung = test system: DMS 273 small cell lung
RXF 393 renal = test system: RXF 393 renal

Measured: TGI

COc1cccc(NC(=O)C(C)(C)C)c1C=O
85.4 µM: XF 498 CNS
77.3 µM: UO-31 renal
not listed: DMS 273 small cell lung | RXF 393 renal
> 100 µM: all other assays above

c1ccc(N=c2snc3scc(-c4ccccc4)n23)cc1
92.1 µM: UACC-62 melanoma
66.6 µM: XF 498 CNS
68.3 µM: U251 CNS
81.4 µM: UO-31 renal
38.4 µM: NCI-H522 lung
96.2 µM: M14 melanoma
80.6 µM: COLO 205 colon
61.9 µM: SK-MEL-5 melanoma
98.6 µM: MALME-3M melanoma
88.8 µM: DMS 114 small cell lung
79.6 µM: MOLT-4 leukemia
76.3 µM: HOP-92 NSCLC
62.2 µM: OVCAR-3 ovarian
86.7 µM: RPMI-8226 leukemia
not listed: HCT-116 colon | KM20L2 colon | NCI-H460 lung | SR leukemia
> 100 µM: all other assays above
